# Target: T1, human orexin 2 receptor (Homo sapiens, UniProt O43614)
# T1 construct: stably expressing the full-length human orexin 2 receptor and the aequorin photoprotein; expressed in transfected cells; host or cells: CHO-K1 (CHO-K1/hOx2), co-expressing aequorin
# T1 sequence (O43614 1-444): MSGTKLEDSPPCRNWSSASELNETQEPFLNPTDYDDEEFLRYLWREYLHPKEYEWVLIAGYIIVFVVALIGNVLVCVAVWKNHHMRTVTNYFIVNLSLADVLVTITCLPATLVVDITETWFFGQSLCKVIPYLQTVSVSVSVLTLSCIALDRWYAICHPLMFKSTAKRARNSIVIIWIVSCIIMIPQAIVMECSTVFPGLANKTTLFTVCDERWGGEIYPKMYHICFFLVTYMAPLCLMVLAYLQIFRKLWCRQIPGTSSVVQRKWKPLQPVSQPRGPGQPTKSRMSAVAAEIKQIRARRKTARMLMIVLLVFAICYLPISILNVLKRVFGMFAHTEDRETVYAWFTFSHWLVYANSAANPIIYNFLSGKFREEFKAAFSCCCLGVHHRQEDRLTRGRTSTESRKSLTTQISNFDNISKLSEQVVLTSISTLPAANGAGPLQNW
# Experiment: Assay B: OX2R IP1 (in vitro OX2R potency)
# Assay type: cell-based
# Settings: 0.5 nM Orexin A concentration
# Text: Activation of the orexin receptors expressed in cell lines results in an increase in intracellular IP3 concentration. IP1, a downstream metabolite of IP3, accumulates in cells following receptor activation and is stable in the presence of LiCl. Using Homogeneous Time-Resolved Fluorescence technology with Lumi4-Tb cryptate (commercially available from Cisbio Bioassay.) and a suitable fluorescence plate reader. […] Chem. Genomics 2009, 3, 22-32. This technique is used to characterize pharmacological modification of the orexin receptors.
# B. In Vitro Testing of OX2R Potency: OX2R IP1
# IP1 measurements are performed in CHO-K1 cells stably expressing the full-length human orexin 2 receptor and the aequorin photoprotein. Cells are cultivated in Ham's nutrient mixture F12 medium with 10% fetal calf serum, in a 37° C., 95% humidity and 5% CO2 incubator. The CHO-K1/hOx2 cell mass is expanded to larger cell numbers. The cells are obtained as frozen cells in cryo-vials and stored until use at −150° C. The viability of the cells after thawing is >90%. In preparation for the assay, 24 hours before the assay, the cells are thawed at 37° C. and immediately diluted with cell culture medium. After centrifugation, the cell pellet is resuspended in medium and then distributed into the assay plates with a density of 5000 cells/25 μL per well. The plates are incubated for one hour at room temperature to reduce edge effects before they are incubated for 24 hours at 37° C./5% CO2. Compounds are prepared by a 8-point serial dilution in DMSO and a final dilution step into assay buffer (HBSS with 20 mM HEPES, 0.1% BSA and 50 mM LiCl, pH 7.4) to ensure a final DMSO concentration of 1% in the assay. On the day of the assay, cells in the plate are washed twice with 60 μL assay buffer (20 μL buffer remained in the wells after washing), followed by adding 5 μL per well of compounds diluted in assay buffer. After 15 minutes of incubation at room temperature 5 μL per well of Orexin A peptide (final concentration: 0.5 nM) dissolved in assay buffer is added to the assay plate. The assay plate is incubated for 60 minutes at 37° C. Then 5 μl per well of Anti-IP1-Cryptate Tb solution and 5 μl per well of IP1-d2 dilution are added to all well of the plate and the plate is incubated for a further 60 minutes light protected at room temperature. The emission at 615 nm and 665 nm (Excitation wavelength: 320 nm) are measured using an EnVision reader (PerkinElmer). The ratio between the emission at 665 nm and 615 is calculated by the reader.
# 8-point four parametric non-linear curve fitting and determination of IC50 values and Hill slopes is performed using a regular analysis software e.g. AssayExplorer (Accelrys). In order to establish an agonist concentration independent parameter, Kb values are calculated using the following equation: IC50/((2+(A/EC50)n)^1/n−1) (with A=concentration agonist, EC50=EC50 agonist, n=Hill slope agonist) (see P. Leff, I. G. Dougall, Trends Pharmacol. Sci. 1993, 14(4), 110-112).
# Kb values from Assay A (OX1R) and Assay B (OX2R) can then provide a selectivity ratio which is independent of the agonist (Orexin A) concentration.
row,SMILES,Kb [µM]
1,CCN(C(=O)c1ccccc1-n1nccn1)[C@@H](C)CNc1ncc(C(F)(F)F)cn1 [Example 1],0.0194
2,CCN(C(=O)c1nc(C)ccc1-n1nccn1)[C@@H](C)CNc1ncc(C(F)(F)F)cn1 [Example 9],0.0329
3,CCN(C(=O)c1cnc(C)nc1-c1ccccc1)[C@@H](C)CNc1ncc(C(F)(F)F)cn1 [Example 17],0.054
4,CCN(C(=O)c1cccc(F)c1-n1nccn1)[C@@H](C)CNc1ncc(C(F)(F)F)cn1 [Example 18],0.018

# Reference: US9884854B2, “N-[(pyrimidinylamino)propanyl]-and N[(pyrazinylamino)proppanyl]arylcarboxamides” (Boehringer Ingelheim International GmbH, priority 2016, dated 2018)
